Data taken from ChEMBL document CHEMBL5532705, “Bioactivity-Based Molecular Networking-Guided Isolation of Epicolidines A-C from the Endophytic Fungus Epicoccum sp. 1-042” (2024).
Numbered stars: 1 amine (or outer) side, 2 acyl side, 3 side chain; on linkers, the order of the positions; unused ones are H or OH. Bridge positions count the residues as written; N and C are the ends. Square brackets hold non-standard residues; d marks the D form. Peptide text beside a SMILES is read from it. * marks the point of attachment. X1 = O=C1C[C@@H](C(=O)[*:2])N([*:1])C[C@H]1CS[C@@H]1CN2CCC1CC2; NMePhe(4-NMe2) = CN[C@@H](Cc1ccc(N(C)C)cc1)C(=O)O; Picolinoyl(3-OH) = O=C(c1ncccc1O)*; Phg = N[C@H](C(=O)O)c1ccccc1; dAbu = CC[C@@H](N)C(=O)O

Experiments:
Assay type in all cases: functional
[1] = system: Candida tropicalis; assay: Antimicrobial activity against Candida tropicalis ATCC 1369 assessed as inhibition of microbial growth incubated for 16 hrs by broth microdilution method
[2] = system: Enterococcus faecium; assay: Antimicrobial activity against Enterococcus faecium ATCC 35667 assessed as inhibition of microbial growth incubated for 16 hrs by broth microdilution method
[3] = system: Klebsiella pneumoniae; assay: Antimicrobial activity against Klebsiella pneumoniae ATCC 700603 assessed as inhibition of microbial growth incubated for 16 hrs by broth microdilution method
[4] = system: Candida albicans; assay: Antimicrobial activity against Candida albicans ATCC 10231 assessed as inhibition of microbial growth incubated for 16 hrs by broth microdilution method
[5] = system: Staphylococcus aureus; assay: Antimicrobial activity against methicillin resistant Staphylococcus aureus 181404 assessed as inhibition of microbial growth incubated for 16 hrs by broth microdilution method
[6] = system: Pseudomonas aeruginosa; assay: Antimicrobial activity against Pseudomonas aeruginosa ATCC 27853 assessed as inhibition of microbial growth incubated for 16 hrs by broth microdilution method
[7] = system: Staphylococcus aureus; assay: Antimicrobial activity against Staphylococcus aureus ATCC 29213 assessed as inhibition of microbial growth incubated for 16 hrs by broth microdilution method
[8] = system: Escherichia coli; assay: Antimicrobial activity against Escherichia coli ATCC 25922 assessed as inhibition of microbial growth incubated for 16 hrs by broth microdilution method
[9] = system: Enterococcus faecium; assay: Antimicrobial activity against vancomycin resistant Enterococcus faecium 310682 assessed as inhibition of microbial growth incubated for 16 hrs by broth microdilution method
[10] = system: Enterococcus faecium; assay: Antibacterial activity against vancomycin resistant Enterococcus faecium 310682 infected in Galleria mellonella last-instar larvae assessed as survival at 10 mg/kg measured after 1 day (reference value: 30%); conditions: Enterococcus faecium, 310682, 24 h
[11] = system: Enterococcus faecium; assay: Antibacterial activity against vancomycin resistant Enterococcus faecium 310682 infected in Galleria mellonella last-instar larvae assessed as survival at 0.20 mg/kg measured after 1 day (reference value: 30%); conditions: Enterococcus faecium, 310682, 24 h
[12] = system: Enterococcus faecium; assay: Antibacterial activity against vancomycin resistant Enterococcus faecium 310682 infected in Galleria mellonella last-instar larvae assessed as survival at 1 mg/kg measured after 1 day (reference value: 30%); conditions: Enterococcus faecium, 310682, 24 h
[13] = system: Enterococcus faecium; assay: Antimicrobial activity against vancomycin resistant Enterococcus faecium 310682 assessed as inhibition of microbial growth incubated for 16 hrs in presence of quinupristin by broth microdilution method
[14] = system: Enterococcus faecium; assay: Antimicrobial activity against vancomycin resistant Enterococcus faecium 310682 assessed as inhibition of microbial growth incubated for 16 hrs in presence of dalfopristin by broth microdilution method

SMILES: C=C([C@H](C)O)[C@H]1C=C[C@H]2C[C@@H](C)C[C@@H](C)[C@H]2[C@@H]1/C(O)=C1\C(=O)[C@H]([C@@H](C)CC)N(C)C1=O
- MIC [1]: > 128 µg/mL
- MIC [2]: 8 µg/mL
- MIC [3]: > 128 µg/mL
- MIC [4]: 128 µg/mL
- MIC [5]: 2 µg/mL
- MIC [6]: > 128 µg/mL
- MIC [7]: 2 µg/mL
- MIC [8]: > 128 µg/mL
- MIC [9]: 2 µg/mL

SMILES: CC[C@H](C)[C@@H]1N(C)C(=O)[C@H]2C(=O)[C@H]3[C@@H]4[C@H](C)C[C@H](C)C[C@@H]4C=C[C@@H]3[C@@]3(C)O[C@]21O[C@H]3C
- MIC [1]: > 128 µg/mL
- MIC [2]: 64 µg/mL
- MIC [3]: > 128 µg/mL
- MIC [4]: > 128 µg/mL
- MIC [5]: 16 µg/mL
- MIC [6]: > 128 µg/mL
- MIC [7]: 64 µg/mL
- MIC [8]: > 128 µg/mL
- MIC [9]: 16 µg/mL

SMILES: CC[C@H](C)[C@H]1C(=O)/C(=C(/O)[C@H]2[C@@H]3[C@H](C)C[C@H](C)C[C@@H]3C=C[C@@H]2[C@]2(C)O[C@H]2C)C(=O)N1C
- MIC [1]: > 128 µg/mL
- survival at 10 mg/kg [10]: 100%
- survival at 0.2 mg/kg [11]: 0%
- MIC [2]: 1 µg/mL
- survival at 1 mg/kg [12]: 40%
- MIC [3]: > 128 µg/mL
- MIC [4]: 8 µg/mL
- MIC [5]: 0.5 µg/mL
- MIC [6]: > 128 µg/mL
- MIC [7]: 0.25 µg/mL
- MIC [8]: > 128 µg/mL
- MIC [9]: 0.25 µg/mL

SMILES: CCN(CC)CCS(=O)(=O)[C@@H]1CCN2C(=O)c3coc(n3)CC(=O)C[C@H](O)/C=C(C)/C=C/CNC(=O)/C=C/[C@@H](C)[C@@H](C(C)C)OC(=O)[C@@H]12 [DALFOPRISTIN]
- MIC [13]: 0.5 µg/mL

SMILES: OC(Cn1cncn1)(Cn1cncn1)c1ccc(F)cc1F [FLUCONAZOLE]
- MIC [1]: 2 µg/mL
- MIC [4]: 8 µg/mL

SMILES: C[C@@H](O)[C@H]1C(=O)N2C(C(=O)O)=C(S[C@@H]3CN[C@H](C(=O)N(C)C)C3)[C@H](C)[C@H]12 [MEROPENEM]
- MIC [2]: > 16 µg/mL
- MIC [3]: 2 µg/mL
- MIC [5]: > 16 µg/mL
- MIC [6]: 16 µg/mL
- MIC [7]: 2 µg/mL
- MIC [8]: 0.5 µg/mL
- MIC [9]: > 16 µg/mL

SMILES: CC[C@H]1NC(=O)[C@@H](NC(=O)c2ncccc2O)[C@@H](C)OC(=O)[C@H](c2ccccc2)NC(=O)[C@@H]2CC(=O)[C@H](CS[C@@H]3CN4CCC3CC4)CN2C(=O)[C@H](Cc2ccc(N(C)C)cc2)N(C)C(=O)[C@@H]2CCCN2C1=O [QUINUPRISTIN] ({Picolinoyl(3-OH)}-T[dAbu]P[NMePhe(4-NMe2)][X1][Phg]; ester 1-C)
- MIC [14]: 0.5 µg/mL

SMILES: CN[C@H](CC(C)C)C(=O)N[C@H]1C(=O)N[C@@H](CC(N)=O)C(=O)N[C@H]2C(=O)N[C@H]3C(=O)N[C@H](C(=O)N[C@H](C(=O)O)c4cc(O)cc(O)c4-c4cc3ccc4O)[C@H](O)c3ccc(c(Cl)c3)Oc3cc2cc(c3O[C@@H]2O[C@H](CO)[C@@H](O)[C@H](O)[C@H]2O[C@H]2C[C@](C)(N)[C@H](O)[C@H](C)O2)Oc2ccc(cc2Cl)[C@H]1O [VANCOMYCIN]
- MIC [5]: 0.25 µg/mL
- MIC [9]: > 16 µg/mL
